Measured values: patent publication US4476120A, “Thiolic derivatives of erythromycin having therapeutic activity, and pharmaceutical compositions containing them” (Sigma Tau Indistrie Farmaceutiche Riunites, p.A, priority 1982, dated 1984)
In brackets after ≈: the same amount, converted by molar mass.

How the values were obtained:
Staph. albus SS 03 = assay type: cell-based; conditions: Brain Heart Infusion, estolate and RV11-RV15 previously hydrolized, unit assumed
Staph. albus SS 04 = assay type: cell-based; conditions: Brain Heart Infusion, estolate and RV11-RV15 previously hydrolized, unit assumed
Staph. aureus SS 07 [1] = assay type: cell-based; conditions: Brain Heart Infusion, estolate and RV11-RV15 previously hydrolized, unit assumed
Staph. aureus SS 08 = assay type: cell-based; conditions: Brain Heart Infusion, estolate and RV11-RV15 previously hydrolized, unit assumed
Staph. aureus SS 09 = assay type: cell-based; conditions: Brain Heart Infusion, estolate and RV11-RV15 previously hydrolized, unit assumed
Staph. aureus SS 10 = assay type: cell-based; conditions: Brain Heart Infusion, estolate and RV11-RV15 previously hydrolized, unit assumed
[2] = tested on: Strept. haemolyticus SS 17; assay type: cell-based; conditions: Brain Heart Infusion, estolate and RV11-RV15 previously hydrolized, unit assumed
[3] = tested on: Strept. haemolyticus SS 18; assay type: cell-based; conditions: Brain Heart Infusion, estolate and RV11-RV15 previously hydrolized, unit assumed
Strept. faecalis SS 19 = assay type: cell-based; conditions: Brain Heart Infusion, estolate and RV11-RV15 previously hydrolized, unit assumed
S. lutea ATCC 9341 = assay type: cell-based; conditions: Brain Heart Infusion, estolate and RV11-RV15 previously hydrolized, unit assumed
B. subtilis ATCC 6633 = assay type: cell-based; conditions: Brain Heart Infusion, estolate and RV11-RV15 previously hydrolized, unit assumed
B. subtilis SS 127 = assay type: cell-based; conditions: Brain Heart Infusion, estolate and RV11-RV15 previously hydrolized, unit assumed
B. anthranis SS 08 = assay type: cell-based; conditions: Brain Heart Infusion, estolate and RV11-RV15 previously hydrolized, unit assumed
Br. melitensis SS 19 = assay type: cell-based; conditions: unit assumed
Br. abortus SS 7 = assay type: cell-based; conditions: Brain Heart Infusion, estolate and RV11-RV15 previously hydrolized, unit assumed
Citrobacter SS 05 = assay type: cell-based; conditions: Brain Heart Infusion, estolate and RV11-RV15 previously hydrolized, unit assumed
Citrobacter SS 09 = assay type: cell-based; conditions: Brain Heart Infusion, estolate and RV11-RV15 previously hydrolized, unit assumed
S. infantis SS 08 = assay type: cell-based; conditions: Brain Heart Infusion, estolate and RV11-RV15 previously hydrolized, unit assumed
E. cloacae SS 07 = assay type: cell-based; conditions: Brain Heart Infusion, estolate and RV11-RV15 previously hydrolized, unit assumed
E. aerogenes SS 011 = assay type: cell-based; conditions: Brain Heart Infusion, estolate and RV11-RV15 previously hydrolized, unit assumed
Ps. aeruginosa SS 10 = assay type: cell-based; conditions: Brain Heart Infusion, estolate and RV11-RV15 previously hydrolized, unit assumed
E. coli SS 04 = assay type: cell-based; conditions: Brain Heart Infusion, estolate and RV11-RV15 previously hydrolized, unit assumed
E. coli SS 05 = assay type: cell-based; conditions: Brain Heart Infusion, estolate and RV11-RV15 previously hydrolized, unit assumed
E. coli SS 07 = assay type: cell-based; conditions: Brain Heart Infusion, estolate and RV11-RV15 previously hydrolized, unit assumed
Pr. mirabilis SS 09 = assay type: cell-based; conditions: Brain Heart Infusion, estolate and RV11-RV15 previously hydrolized, unit assumed
Pr. vulgaris SS 10 = assay type: cell-based; conditions: Brain Heart Infusion, estolate and RV11-RV15 previously hydrolized, unit assumed
Kl. aerogenes SS 71 = assay type: cell-based; conditions: Brain Heart Infusion, estolate and RV11-RV15 previously hydrolized, unit assumed
H. tubercolosis SS 03 = assay type: cell-based; conditions: Brain Heart Infusion, estolate and RV11-RV15 previously hydrolized, unit assumed
Excerpt: (§1) In the following table I the MIC/ml values are indicated corresponding to the lowest concentration capable of inducing a complete inhibition of the bacterial development.

Kl. pneumoniae SS 04 = assay type: cell-based; conditions: Brain Heart Infusion, estolate and RV11-RV15 previously hydrolized, unit assumed
Excerpt: as §1

Sr. marcescens SS 03 = assay type: cell-based; conditions: Brain Heart Infusion, estolate and RV11-RV15 previously hydrolized, unit assumed
C. diphtheriae SS 19 = assay type: cell-based; conditions: Brain Heart Infusion, estolate and RV11-RV15 previously hydrolized, unit assumed
N. gonorreae SS 27 = assay type: cell-based; conditions: Brain Heart Infusion, estolate and RV11-RV15 previously hydrolized, unit assumed
H. influentiae SS 02 = assay type: cell-based; conditions: Brain Heart Infusion, estolate and RV11-RV15 previously hydrolized, unit assumed
H. pertussis SS 03 = assay type: cell-based; conditions: Brain Heart Infusion, estolate and RV11-RV15 previously hydrolized, unit assumed
C. albicans SS 04 = assay type: cell-based; conditions: Brain Heart Infusion, estolate and RV11-RV15 previously hydrolized, unit assumed
Cl. tetani SS 17 = assay type: cell-based; conditions: Brain Heart Infusion, estolate and RV11-RV15 previously hydrolized, unit assumed
B. anthranis SS 09 = assay type: cell-based; conditions: B. anthranis SS 09 (14 bis); Brain Heart Infusion; estolate and RV11-RV15 previously hydrolized; unit assumed
Acute toxicity = assay type: in vivo; conditions: mouse, in vivo, po; os; mortality 10 days after treatment; mice; read-out: LD50 (reliability limits)
Protocol: The acute toxicity was assessed in Swiss white mice by oral and intravenous route. The LD50 values have been calculated by the methods of Probits, starting from the mortality recorded 10 days after the treatment.

Staph. aureus SS 07 [4] = assay: Experimental infection induced by Staph. aureus SS 07; assay type: in vivo, Swiss white mice; conditions: os; Staph. aureus SS 07; mg/kg of erythromycin; survival after 7 days; 10080 min
Protocol: (§2) Swiss white mice of 20 g body weight were used, infected by parenteral administration of lethal amounts of pathogenic […] of Staph. aureus SS 07 and D. pneumoniae SS 23.
(§3) The antibiotics were administered at the time of injecting the infecting germ and 6 and 24 hours later. On the basis of the survival after 7 days, the ED50 values were determined, as reported in the following table II and III, wherein the reliability limits are indicated in brackets.

D. pneumoniae SS 23 = assay: Experimental infection induced by D. pneumoniae SS 23; assay type: in vivo, Swiss white mice; conditions: os; D. pneumoniae SS 23; mg/kg of erythromycin; survival after 7 days; 10080 min
Protocol: as §2, §3

[5] = Mucolytic activity: obstruction of the bronchial tract after SO2 inhalation; assay type: in vivo, Sprague Dawley male rats; conditions: oral, 500 mg/kg; SO2, 15 days
[6] = Histological examination of bronchi after SO2 inhalation; assay type: in vivo, Sprague Dawley male rats; conditions: oral, 500 mg/kg

Which results are given for CCC(=O)O[C@H]1[C@H](O[C@@H]2[C@@H](C)[C@H](O[C@H]3C[C@@](C)(OC)[C@@H](O)[C@H](C)O3)[C@@H](C)C(=O)O[C@H](CC)[C@@](C)(O)[C@H](O)[C@@H](C)C(=O)[C@H](C)C[C@@]2(C)O)O[C@H](C)C[C@@H]1N(C)C [RV11, erythromycin-monopropionate-alpha-mercaptosuccinate]?
MIC (Staph. albus SS 03): 0.05 µg/mL (≈ 0.0633 µM); MIC (Staph. albus SS 04): 0.05 µg/mL (≈ 0.0633 µM); MIC (Staph. aureus SS 07 [1]): 0.05 µg/mL (≈ 0.0633 µM); MIC (Staph. aureus SS 08): 0.025 µg/mL (≈ 0.0316 µM); MIC (Staph. aureus SS 09): 0.1 µg/mL (≈ 0.127 µM); MIC (Staph. aureus SS 10): 0.025 µg/mL (≈ 0.0316 µM); MIC [2]: 1.5 µg/mL (≈ 1.9 µM); MIC [3]: 1.5 µg/mL (≈ 1.9 µM); MIC (Strept. faecalis SS 19): 0.05 µg/mL (≈ 0.0633 µM); MIC (S. lutea ATCC 9341): 0.01 µg/mL (≈ 0.0127 µM); MIC (B. subtilis ATCC 6633): 0.025 µg/mL (≈ 0.0316 µM); MIC (B. subtilis SS 127): 0.05 µg/mL (≈ 0.0633 µM); MIC (B. anthranis SS 08): 0.8 µg/mL (≈ 1.01 µM); MIC (Br. melitensis SS 19): 3 µg/mL (≈ 3.8 µM); MIC (Br. abortus SS 7): 6 µg/mL (≈ 7.59 µM); MIC (Citrobacter SS 05): > 200 µg/mL; MIC (Citrobacter SS 09): > 200 µg/mL; MIC (S. infantis SS 08): 100 µg/mL (≈ 127 µM); MIC (E. cloacae SS 07): > 200 µg/mL; MIC (E. aerogenes SS 011): 100 µg/mL (≈ 127 µM); MIC (Ps. aeruginosa SS 10): 100 µg/mL (≈ 127 µM); MIC (E. coli SS 04): 50 µg/mL (≈ 63.3 µM); MIC (E. coli SS 05): 100 µg/mL (≈ 127 µM); MIC (E. coli SS 07): 50 µg/mL (≈ 63.3 µM); MIC (Pr. mirabilis SS 09): > 200 µg/mL; MIC (Pr. vulgaris SS 10): > 200 µg/mL; MIC (Kl. aerogenes SS 71): 100 µg/mL (≈ 127 µM); MIC (H. tubercolosis SS 03): 50 µg/mL (≈ 63.3 µM); MIC (Kl. pneumoniae SS 04): 200 µg/mL (≈ 253 µM); MIC (Sr. marcescens SS 03): 200 µg/mL (≈ 253 µM); MIC (C. diphtheriae SS 19): 0.01 µg/mL (≈ 0.0127 µM); MIC (N. gonorreae SS 27): 0.4 µg/mL (≈ 0.506 µM); MIC (H. influentiae SS 02): 0.8 µg/mL (≈ 1.01 µM); MIC (H. pertussis SS 03): 0.4 µg/mL (≈ 0.506 µM); MIC (C. albicans SS 04): 200 µg/mL (≈ 253 µM); MIC (Cl. tetani SS 17): 0.2 µg/mL (≈ 0.253 µM); MIC (B. anthranis SS 09): 0.4 µg/mL (≈ 0.506 µM); LD50 at 240 h (Acute toxicity): 3000 mg/kg; ED50 (reliability limits) (Staph. aureus SS 07 [4]): 2.14 (2.40-1.91) mg/kg; ED50 (reliability limits) (D. pneumoniae SS 23): 100.41 (122.52-82.30) mg/kg; Partial obstruction (% incidence) [5]: 13.33%; Total obstruction, compact plug (% incidence) [5]: 20%; Total obstruction, nodular mass (% incidence) [5]: 6.66%; Total obstruction, pimply mass (% incidence) [5]: 6.66%; histological appearance of non obstructed bronchi ([6]; free non obstructed): presence of bronchi having almost normal appearance; histological appearance of obstructed bronchial tract ([6]; obstructed): fully like that of the control animals
